Measurements reported in ChEMBL document CHEMBL4020815 (J Med Chem, 2017).
≈ marks a conversion by molar mass, not a printed value.

Key:
[1] = molecular target: T1, Bifunctional purine biosynthesis protein ATIC (Homo sapiens, UniProt P31939); experiment: Inhibition of human full length N-terminal His-tagged AICARFT expressed in Escherichia coli BL21 (DE3) using ZMP/10-formyltetrahydrofolate as substrate assessed as decrease in IMP levels after 1 hr by mass spectrometric method
[2] = molecular target: T1, Bifunctional purine biosynthesis protein ATIC; experiment: Inhibition of AICARFT in human NCI-H460 cells assessed as increase in ZMP levels using low folate media after 16 hrs by LC-MS method; type: cell-based
[3] = Permeability across apical to basolateral side in MDCK cells at 20 uM; type: ADME, cell-based, Canis lupus familiaris; conditions: dog
[4] = Plasma concentration in CD-1 mouse at 10 mg/kg, po after 1 hr by LC-MS/MS method; type: ADME, organism-based
[5] = Fraction unbound in CD-1 mouse plasma; type: ADME, cell-free
Mus musculus [6] = experiment: Unbound clearance in CD-1 mouse at 5 mg/kg, iv by LC-MS/MS method; type: ADME, organism-based; conditions: in vivo
Mus musculus [7] = experiment: Unbound volume of distribution at steady state in CD-1 mouse at 5 mg/kg, iv by LC-MS/MS method; type: ADME, organism-based; conditions: in vivo
Mus musculus [8] = experiment: Unbound AUC in CD-1 mouse at 5 mg/kg, po by LC-MS/MS method; type: ADME, organism-based; conditions: in vivo
[9] = Half life in CD-1 mouse at 5 mg/kg, po by LC-MS/MS method; type: ADME, organism-based; conditions: in vivo
Mus musculus [10] = experiment: Unbound Cmax in CD-1 mouse at 5 mg/kg, po by LC-MS/MS method; type: ADME, organism-based; conditions: in vivo
[11] = Oral bioavailability in CD-1 mouse at 5 mg/kg by LC-MS/MS method; type: ADME, organism-based; conditions: in vivo
[12] = molecular target: T1, Bifunctional purine biosynthesis protein ATIC; experiment: Inhibition of human AICARFT
[13] = Dissociation constant, pKa of the compound; type: physicochemical
[14] = Lipophilicity, log D of the compound at pH 7; type: physicochemical; conditions: buffer
[15] = Equilibrium aqueous solubility of the compound at pH 2 after 20 hrs by HPLC method; type: physicochemical
[16] = Equilibrium aqueous solubility of the compound at pH 6 after 20 hrs by HPLC method; type: physicochemical
[17] = Equilibrium aqueous solubility of the compound at pH 7.5 after 20 hrs by HPLC method; type: physicochemical
[18] = AUC in CD-1 mouse at 10 mg/kg, po by LC-MS/MS method; type: ADME, organism-based; conditions: in vivo
[19] = Clearance in CD-1 mouse at 1 mg/kg, iv by LC-MS/MS method; type: ADME, organism-based; conditions: in vivo
[20] = Oral bioavailability in CD-1 mouse at 10 mg/kg by LC-MS/MS method; type: ADME, organism-based; conditions: in vivo
[21] = Antitumor activity against human MDA-MB-231met2 cells xenografted in athymic nude mouse assessed as tumor volume at 5 mg/kg, iv qd administered for 5 days measured after 9 days relative to control; type: functional
Mus musculus [22] = experiment: Toxicity in athymic nude mouse xenografted with human MDA-MB-231met2 cells assessed as mortality at 5 mg/kg, iv qd administered for 5 days; type: organism-based; conditions: in vivo, 120 h
Mus musculus [23] = experiment: Toxicity in athymic nude mouse xenografted with human MDA-MB-231met2 cells assessed as body weight loss at 5 mg/kg, iv qd administered for 5 days; type: organism-based; conditions: in vivo, 120 h
Mus musculus [24] = experiment: In vivo inhibition of AICARFT in tumor of low folate diet fed nude mouse xenografted with human NCI-H460 cells assessed as increase in intratumoral ZMP levels at 0.3 to 30 mg/kg after 4 hrs relative to vehicle-treated control; type: functional
Mus musculus [25] = experiment: In vivo inhibition of AICARFT in tumor of low folate diet fed nude mouse xenografted with human NCI-H460 cells assessed as increase in circulating AICAr levels at 0.3 to 30 mg/kg after 4 hrs relative to vehicle-treated control; type: functional

T1 sequence (P31939 whole entry): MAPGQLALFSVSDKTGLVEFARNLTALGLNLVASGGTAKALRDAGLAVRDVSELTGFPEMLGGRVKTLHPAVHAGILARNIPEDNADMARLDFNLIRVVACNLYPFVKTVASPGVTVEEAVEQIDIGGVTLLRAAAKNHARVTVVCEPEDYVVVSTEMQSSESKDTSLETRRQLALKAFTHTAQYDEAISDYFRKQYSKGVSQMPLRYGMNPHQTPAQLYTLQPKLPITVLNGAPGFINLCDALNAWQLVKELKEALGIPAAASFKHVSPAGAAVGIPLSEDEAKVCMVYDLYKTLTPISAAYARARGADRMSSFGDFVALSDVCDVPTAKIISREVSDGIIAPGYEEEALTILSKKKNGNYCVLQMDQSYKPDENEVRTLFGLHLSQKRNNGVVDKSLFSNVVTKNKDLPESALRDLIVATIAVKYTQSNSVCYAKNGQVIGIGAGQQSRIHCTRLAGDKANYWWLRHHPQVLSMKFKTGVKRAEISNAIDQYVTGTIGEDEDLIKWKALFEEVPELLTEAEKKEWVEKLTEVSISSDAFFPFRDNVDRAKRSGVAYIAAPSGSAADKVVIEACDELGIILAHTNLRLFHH

Structure (SMILES) | IC50 [1] [nM] | EC50 [2] [nM] | permeability [3] [%] | concentration at 1 h [4] [µM] | fraction unbound [5] | other results
Nc1nc2ccc(NS(=O)(=O)c3ccc(C(=O)N[C@@H](CCC(=O)O)C(=O)O)cc3)cc2c(=O)[nH]1 | 1000 to 5000 |  |  |  |  | Ki [12]: 6 nM
O=C1NC(=O)c2cc(NS(=O)(=O)c3ccc(Cl)cc3)ccc21 | 34800 |  |  |  |  | 
N#Cc1ccc(S(=O)(=O)Nc2ccc3nc(N)[nH]c(=O)c3c2)cc1 | 18100 |  |  |  |  | 
N#Cc1ccc(S(=O)(=O)Nc2cc3c(=O)[nH]ccc3cc2F)cc1 | 723 | 1810 | 0.35 |  |  | pKa [13]: 5.97; logD [14]: 0.6; solubility thermodynamic at 20 h [15]: 10 µg/mL (≈ 29.1 µM); solubility thermodynamic at 20 h [16]: 20 µg/mL (≈ 58.3 µM); solubility thermodynamic at 20 h [17]: 230 µg/mL (≈ 670 µM); AUC [18]: 55800 ng·h/mL; clearance [19]: 2.34 mL/min/kg; bioavailability [20]: 79%
CCC1(C)CC(c2ccc(S(=O)(=O)Nc3cc4c(=O)[nH]ccc4cc3F)s2)=CNC1=O (stereo not given) | < 5 | 4 |  | 10.5 | < 0.03 | 
O=c1ccc(-c2ccc(S(=O)(=O)Nc3cc4c(=O)[nH]ccc4cc3F)s2)c[nH]1 | < 5 | 62 | 0.09 | 1.7 | 0.05 | 
CN(Cc1cnc2nc(N)nc(N)c2n1)c1ccc(C(=O)N[C@@H](CCC(=O)O)C(=O)O)cc1 [METHOTREXATE] |  |  |  |  |  | Activity [21]: 88%; Activity (Mus musculus [22]): Non-Toxic; Activity (Mus musculus [23]): Non-Toxic
O=c1[nH]ccc2cc(F)c(NS(=O)(=O)c3ccc(N4C[C@@H](O)C(F)(F)C4)s3)cc12 | 12 | 27 | 0.28 | 33 | 0.03 | CL free (Mus musculus [6]): 50 mL/min/kg; Vduss (Mus musculus [7]): 15 L/kg; fAUC (Mus musculus [8]): 2.11 µM·h; half-life [9]: 3.2 h; fCmax (Mus musculus [10]): 293 nM; bioavailability [11]: 55%; fold change (FC) (Mus musculus [24]): >100; fold change (FC) (Mus musculus [25]): 80
N#Cc1ccc(S(=O)(=O)Nc2ccc3cc[nH]c(=O)c3c2)cc1 | 608 | 567 | 0.55 |  |  | pKa [13]: 6.93; logD [14]: 1.7; solubility thermodynamic at 20 h [15]: 30 µg/mL (≈ 92.2 µM); solubility thermodynamic at 20 h [16]: 40 µg/mL (≈ 123 µM); solubility thermodynamic at 20 h [17]: 160 µg/mL (≈ 492 µM); AUC [18]: 16100 ng·h/mL; clearance [19]: 4.47 mL/min/kg; bioavailability [20]: 43%

The next lines start with results.

IC50 [1] [nM] | EC50 [2] [nM] | permeability [3] [%] | concentration at 1 h [4] [µM] | fraction unbound [5] | Structure (SMILES) | other results
> 100000 |  |  |  |  | N#Cc1ccc(S(=O)(=O)Nc2ccccc2)cc1 | 
< 5 | 10 | 0.09 | 30.6 | < 0.02 | CC1(C)CC(c2ccc(S(=O)(=O)Nc3cc4c(=O)[nH]ccc4cc3F)s2)=CNC1=O | CL free (Mus musculus [6]): 19 mL/min/kg; Vduss (Mus musculus [7]): 9 L/kg; fAUC (Mus musculus [8]): 2.159 µM·h; half-life [9]: 5.2 h; fCmax (Mus musculus [10]): 187 nM; bioavailability [11]: 23%
13 | 31 | 0.34 | 19.3 | 0.02 | O=c1[nH]ccc2cc(F)c(NS(=O)(=O)c3ccc(N4C[C@H](O)C(F)(F)C4)s3)cc12 | 
18 | 18 | 0.17 | 6.7 | 0.03 | O=c1[nH]ccc2cc(F)c(NS(=O)(=O)c3ccc(N4CCC[C@H](O)C4)s3)cc12 | 
26 | 68 | 0.17 | 1.7 | 0.03 | O=c1[nH]ccc2cc(F)c(NS(=O)(=O)c3ccc(N4CCC[C@@H](O)C4)s3)cc12 | 
20 | 17 | 0.17 | 12 | 0.05 | O=c1[nH]ccc2cc(F)c(NS(=O)(=O)c3ccc(N4C[C@@H](F)[C@@H](O)C4)s3)cc12 (stereo in doubt) | 
 |  | 0.29 | 4.7 | 0.05 | O=c1[nH]ccc2cc(F)c(NS(=O)(=O)c3ccc(N4CC[C@H](O)C4)s3)cc12 | 
7.8 | 7.9 | 0.18 | 9.1 | 0.05 | O=c1[nH]ccc2cc(F)c(NS(=O)(=O)c3ccc(N4C[C@@H](O)[C@@H](F)C4)s3)cc12 (stereo in doubt) | CL free (Mus musculus [6]): 44 mL/min/kg; Vduss (Mus musculus [7]): 9 L/kg; fAUC (Mus musculus [8]): 1.52 µM·h; half-life [9]: 2.8 h; fCmax (Mus musculus [10]): 232 nM; bioavailability [11]: 33%; fold change (FC) (Mus musculus [24]): >100; fold change (FC) (Mus musculus [25]): 80
13 | 21 | 0.25 | 4 | 0.05 | O=c1[nH]ccc2cc(F)c(NS(=O)(=O)c3ccc(N4CCC(O)CC4)s3)cc12 | 
90000 |  |  |  |  | N#Cc1ccc(S(=O)(=O)Nc2cccc(C(N)=O)c2)cc1 | 
